The test system of one assay is Noxa. Nature of the assay: Noxa protein expression by Western blot in NCI-H1975 cells. In kind it is cell-based. The note with it: 3 to 4 µM for 24 h. Here is the method: (§1) Cells were suspended in lysis buffer (50 mM Tris-HCl (pH 7.4), 150 mM NaCl, 1% triton X-100, 1% sodium deoxycholate, 0.1% SDS, 1 mM Na3VO4, 1 mM NaF, 1 mM EDTA, 1 mM PMSF, complete protease inhibitor cocktail) and cleared by centrifugation to obtain whole-cell lysates. Equal amounts of samples were separated by SDS-PAGE, transferred to nitrocellulose and immunoblotted with antibody indicated.

Assay [1] has as its system NCI-H1975 cells. Description: NCI-H1975 xenograft model in nude mice. In kind it is in vivo. The note with it: 30 mg/kg/day oral, 3 weeks; for tumor growth: nude mice with subcutaneous NCI-H1975 tumors. The protocol:
All animal studies were conducted according to protocols approved by the Animal Ethics Committee of the Institute of Zoology, Chinese Academy of Sciences, with the approval ID of AEC2011030205. All mice used in this study were bred and maintained in a specific pathogen-free environment. NCI-H1975 cells (2.5×10^6) were injected subcutaneously into the right flank of nude mice. […]. Animals were sacrificed when tumors reached 2 cm or if the mice appeared moribund to prevent unnecessary morbidity to the mice. At the time of the animals' death, tumors were excised; cells were separated and lyzed for Western blotting using anti-Noxa antibody and anti-Actin antibodies. Noxa expression was then quantified by densitometry analysis and normalized against Actin expression.
We tested the in vivo anti-tumor efficacy of V1801. […]. Animals were euthanized when they were treated for 3 weeks and the tumor samples were isolated and imaged (Fig. 6c). Proteins were extracted from tumor samples and Western blot assay was conducted. […]

For assay [2], the system named is NCI-H1975 cells. Nature of the assay: Cytotoxicity / cell proliferation (MTT assay) in NCI-H1975 cells. Format: cell-based. The note with it: for IC50: Homo sapiens, NCI-H1975. The protocol:
Cell proliferation was determined using MTT assay. Cell viability was estimated by trypan blue dye exclusion. Externalization of phosphatidylserine was tested using an Annexin V/PI Apoptosis Detection kit (BD Biosciences, San Jose, CA) according to manufacturer's instruction.
For orientation: Tetrazolium dyes change colour on reduction, which living cells bring about.

A further assay addresses T1, EGFR kinase (Homo sapiens, UniProt P00533).
T1 construct: purchased Promega
Description: In vitro EGFR kinase assay (ADP-Glo Kinase Assay Kit, EGFR Kinase Enzyme System). Format: biochemical. The protocol:
In vitro kinase inhibitory ability was determined using the ADP-Glo™ Kinase Assay Kit and EGFR Kinase Enzyme System (Promega), following the manufacturer's instructions.
A general note: ADP-Glo first removes unused ATP, then detects ADP through luciferase.

Assay [3] relates to A549 cells. Description: Apoptosis by Annexin V/PI staining and flow cytometry in A549 cells. Format: cell-based. The note with it: 24 h. Here is the method:
(§2) Cell proliferation was determined using MTT assay. Cell viability was estimated by trypan blue dye exclusion. Externalization of phosphatidylserine was tested using an Annexin V/PI Apoptosis Detection kit (BD Biosciences, San Jose, CA) according to manufacturer's instruction. After staining with Hoechst 33258 at 10 µg/ml for 10 min, cell death was assessed by a fluorescence microscope (Leica).
In general terms: In flow cytometry, cells or beads pass a laser one at a time.

Assay [4] has as its system NCI-H1975 cells. Description: Soft-agar colony formation (clonogenic) assay. Format: cell-based. The note with it: 3 µM for 12 h, colonies after 2 weeks; compared to gefitinib or vehicle control. The source says:
To this end, trypsinized cells were suspended in RPMI 1640 medium containing 10% FBS and low-melting-point 0.3% agarose (Amresco, Solon, OH) and subsequently overlaid onto a solidified layer of RPMI 1640 medium containing 10% FBS and 0.6% agarose in 35 mm plate (5,000 cells/plate) in triplicate. After 2 weeks, the colonies were fixed in 90% ethanol and stained with 0.005% crystal violet (Sigma). The colony forming units with more than 100 cells were counted using a light microscope.

For assay [5], the system named is A549 cells. Description: Cell proliferation (MTT assay) in A549 cells. Format: cell-based. The note with it: wild type EGFR-expressing A549, MTT assay, 48 h, dose-dependent. Here is the method:
as §2

Assay [6] has as its system phosphorylated EGFR (p-EGFR). Nature of the assay: Western blot of phosphorylated EGFR in NCI-H1975 cells. In kind it is cell-based. The note with it: 12 h. Here is the method:
as §1

Assay [7] concerns NCI-H1975 cells. Description: Apoptosis by Annexin V/PI staining and flow cytometry in NCI-H1975 cells. Format: cell-based. The note with it: 24 h. Here is the method:
as §2

For assay [8], the system named is phosphorylated EGFR (p-EGFR). Description: Western blot of phosphorylated EGFR in HCC827 cells. Format: cell-based. The note with it: gefitinib-sensitive HCC827 cells, 12 h. Here is the method: as §1
Assay [9] relates to NCI-H1975 cells. Nature of the assay: Combination of V1801 and bortezomib in NCI-H1975 cells (MTT, combination index). Format: cell-based. The note with it: 24 h. Here is the method:
as §2
The interaction between compounds was quantified by determining the combination index (CI) calculated by the Chou–Talalay equation [29], [30]. The general equation for the classic isobologram is given by: CI = (D)1/(Dx)1+(D)2/(Dx)2. Where Dx indicates the dose of one compound alone required to produce an effect, (D)1 and (D)2 are the doses of compounds 1 and 2, respectively, necessary to produce the same effect in combination. From this analysis, the combined effects of the two compounds can be summarized as follows: CI<1 indicates synergism; CI = 1 indicates additive effect; and CI>1 indicates antagonism.

The mark [10] stands for this setting: L858R/T790M-EGFR harboring NSCLC cells.

As a reminder, the IC50 is the concentration that gives 50% inhibition.

T1 sequence (P00533 25-1210): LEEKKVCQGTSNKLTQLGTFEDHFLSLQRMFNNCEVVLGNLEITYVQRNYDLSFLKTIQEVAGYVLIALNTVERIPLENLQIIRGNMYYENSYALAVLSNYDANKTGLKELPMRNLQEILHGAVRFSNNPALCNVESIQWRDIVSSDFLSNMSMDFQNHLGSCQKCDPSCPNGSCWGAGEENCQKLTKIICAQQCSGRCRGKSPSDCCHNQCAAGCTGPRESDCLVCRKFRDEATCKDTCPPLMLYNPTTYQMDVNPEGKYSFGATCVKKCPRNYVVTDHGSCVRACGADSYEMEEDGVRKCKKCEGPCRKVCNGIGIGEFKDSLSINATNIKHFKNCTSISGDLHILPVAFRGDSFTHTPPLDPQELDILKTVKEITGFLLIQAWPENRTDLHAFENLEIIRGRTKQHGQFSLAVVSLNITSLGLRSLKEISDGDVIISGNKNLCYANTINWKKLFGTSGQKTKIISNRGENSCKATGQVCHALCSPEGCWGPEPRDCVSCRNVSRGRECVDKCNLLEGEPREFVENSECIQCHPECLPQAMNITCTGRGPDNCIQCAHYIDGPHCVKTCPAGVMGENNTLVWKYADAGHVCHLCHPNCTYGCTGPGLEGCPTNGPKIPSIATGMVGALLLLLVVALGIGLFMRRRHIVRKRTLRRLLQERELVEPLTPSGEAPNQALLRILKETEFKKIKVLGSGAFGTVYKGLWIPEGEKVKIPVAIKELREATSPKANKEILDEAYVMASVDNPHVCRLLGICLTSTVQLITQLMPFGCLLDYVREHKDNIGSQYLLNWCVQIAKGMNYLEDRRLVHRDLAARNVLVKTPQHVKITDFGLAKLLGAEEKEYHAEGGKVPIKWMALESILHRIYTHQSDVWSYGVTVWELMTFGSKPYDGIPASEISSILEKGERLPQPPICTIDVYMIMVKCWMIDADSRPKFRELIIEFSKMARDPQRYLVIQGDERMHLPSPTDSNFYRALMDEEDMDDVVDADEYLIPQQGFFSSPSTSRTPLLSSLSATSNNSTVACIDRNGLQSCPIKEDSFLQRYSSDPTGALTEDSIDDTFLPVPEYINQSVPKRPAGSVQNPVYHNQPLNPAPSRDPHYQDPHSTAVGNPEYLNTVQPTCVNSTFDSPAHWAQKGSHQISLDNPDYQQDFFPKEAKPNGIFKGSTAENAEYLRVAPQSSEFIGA

For `COc1cc2ncnc(Nc3ccc(F)c(Cl)c3)c2cc1OCCCN1CCOCC1` [Gefitinib, N-(3-chloro-4-fluoro-phenyl)-7-methoxy-6-(3-morpholin-4-ylpropoxy) quinazolin-4-amine, reference compound], the Noxa protein level entry with Noxa is on record as “failed to up-regulate”. Moreover, in the assay with NCI-H1975 cells [1], the tumor growth result is given as “does not show therapeutic benefit”.
As to `COc1cc2c(Nc3cc(C(F)(F)F)ccc3Cl)ncnc2cc1OCCCN=[N+]=[N-]` [V1301], the IC50 with NCI-H1975 cells [2] (setting [10]) and against EGFR kinase was greater than 10 µM in each case.
As for `CCCCCCc1cn(CCCOc2cc3ncnc(Nc4cc(C(F)(F)F)ccc4Cl)c3cc2OC)nn1` [V1302], the concentration for half-maximal inhibition (IC50) with NCI-H1975 cells [2] (setting [10]) and at EGFR kinase was greater than 10 µM throughout.
Take `COc1cc2c(Nc3cc(C(F)(F)F)ccc3Cl)ncnc2cc1OCCCn1cnnn1` [V1303]: the IC50 in the assay with NCI-H1975 cells [2] (setting [10]) and against EGFR kinase was greater than 10 µM in each case.
The compound `C=CCOc1cc2ncnc(Nc3cc(C(F)(F)F)ccc3Cl)c2cc1OC` [V1304] gave an IC50 against EGFR kinase greater than 10 µM.
On the same count and under the same terms, with `COc1cc2c(Nc3cc(C(F)(F)F)ccc3Cl)ncnc2cc1OCCCN1CCOCC1` [V1305] the figure was greater than 10 µM; with `COc1cc2c(Nc3cc(C(F)(F)F)ccc3Cl)ncnc2cc1OCCN1CCCCC1` [V1306], greater than 10 µM.
Consider `COc1cc2c(Nc3cc(C(F)(F)F)ccc3Br)ncnc2cc1OCCCN1CCCCC1` [V1801, N-(2-bromo-5-(trifluoromethyl)phenyl)-6-methoxy-7-(3-(piperidin-1-yl)propoxy)quinazolin-4-amine], for which the induction of apoptosis entry with A549 cells [3] and with NCI-H1975 cells [7] was “induced apoptosis” each time. Besides, in the assay on Noxa, the Noxa protein level result was “markedly up-regulated”. The IC50 in the assay on NCI-H1975 cells [2] (setting [10]) was determined as 3 µM; on EGFR kinase, 0.702 µM. Moreover, in the assay on NCI-H1975 cells [2] (MTT assay, 48 h, dose-dependent), the “inhibition of proliferation of NCI-H1975 cells” value is recorded as “significant inhibitory effects”. In addition, the “clonogenic activity of NCI-H1975 cells” value in the assay with NCI-H1975 cells [4] is reported as “drastically inhibited”. In addition, the “inhibition of proliferation of A549 cells” value in the assay on A549 cells [5] is given as “significant inhibitory effects”. In addition, the “down-regulation of phosphorylated EGFR (p-EGFR)” value in assay [6] is listed as “failed to down-regulate”. In assay [8], the “de-phosphorylation of p-EGFR” value is given as “not”. Also, the tumor growth entry in the assay on NCI-H1975 cells [1] was “significantly inhibited tumor growth”. The “Noxa expression in tumor samples” value in the assay on NCI-H1975 cells [1] (Western blot, compared with vehicle or gefitinib control mice) is recorded as “up-regulated”. For the same compound, the “combination index (CI)” value in the assay on NCI-H1975 cells [9] (V1801 (2 µM) combined with bortezomib 10 to 15 nM, CI<1 indicates synergism) is “less than 1”.
With `COc1cc2c(Nc3ccc(Br)c(C(F)(F)F)c3)ncnc2cc1OCCCN1CCCCC1` [V1802], the IC50 with NCI-H1975 cells [2] (setting [10]) is 7.8 µM; at EGFR kinase it was 0.623 µM.
Consider `COc1cc2c(Nc3ccc4c(C(F)(F)F)cc(=O)oc4c3)ncnc2cc1OCCCN1CCCCC1` [V1803], for which the “IC50 NCI-H1975 cells” value in the assay on NCI-H1975 cells [2] (setting [10]) is reported as “Insoluble”.
Take `COc1cc2c(Nc3ccc4nc(C(F)(F)F)[nH]c4c3)ncnc2cc1OCCCN1CCCCC1` [V1804]: the IC50 in the assay with NCI-H1975 cells [2] (setting [10]) is greater than 10 µM; against EGFR kinase, 2 µM.
Regarding `COc1cc2c(Nc3cc(C(F)(F)F)ccc3F)ncnc2cc1OCCCN1CCCCC1` [V1805], the half-maximal inhibitory concentration (IC50) in the assay with NCI-H1975 cells [2] (setting [10]) was greater than 10 µM; against EGFR kinase, 0.12 µM.
For `COc1cc2c(Nc3cc(C(F)(F)F)ccc3Cl)ncnc2cc1OCCCC1CCCCC1` [V1806] the same measures were greater than 10 µM and greater than 10 µM.
For the compound `COc1cc2c(Nc3cc(C(F)(F)F)cc(C(F)(F)F)c3)ncnc2cc1OCCCN1CCCCC1` [V1807], the IC50 in the assay on NCI-H1975 cells [2] (setting [10]) is 7.5 µM; on EGFR kinase it was greater than 10 µM.
For `COc1cc2c(Nc3cc(C(F)(F)F)ccc3Cl)ncnc2cc1OCCCN1CCCCC1` [V1808], the concentration for half-maximal inhibition (IC50) in the assay on NCI-H1975 cells [2] (setting [10]) came out at 18.2 µM; against EGFR kinase, 2.67 µM.
On to `CC(C)C[C@H](NC(=O)[C@H](Cc1ccccc1)NC(=O)c1cnccn1)B(O)O` [bortezomib, reference compound], for which the “enhancement of V1801-caused inhibition of cell proliferation” value in the assay with NCI-H1975 cells [9] (bortezomib 10 to 15 nM with V1801 2 µM, MTT) is recorded as “significantly enhanced”.

The values above are taken from PMC3504066 (PLoS ONE, 2012).
